In US6737383B1, “Herbicidal oxadiazolidines” (priority 1999, dated 2004):

Experiments:
bedstraw = experiment: Test B pre/postemergence bedstraw; format: in vivo, Galium aparine
Outline: (§1)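 Herbicidal effect was estimated by eye on a ten-point control scale after plants spent twelve to sixteen days in a greenhouse following soil or foliar treatment. Foliar sprays targeted plants at one to four leaves; all doses were formulated in a non-phytotoxic solvent with surfactant.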

surinam grass = experiment: Test B pre/postemergence surinam grass; format: in vivo, Brachiaria decumbens
Outline: as §1

corn = experiment: Test B pre/postemergence corn; format: in vivo, Zea mays
Outline: as §1

crabgrass = experiment: Test B pre/postemergence crabgrass; format: in vivo, Digitaria sanguinalis
Outline: as §1

[1] = Preemergence, Rate 250 g/ha, scale 0 to 10, 0 is no effect, 10 is complete control
[2] = Preemergence, Rate 500 g/ha, scale 0 to 10, 0 is no effect, 10 is complete control
[3] = Rate 62 g/ha, Postemergence, scale 0 to 10 (0 no effect, 10 complete control)
[4] = Rate 125 g/ha, Postemergence, scale 0 to 10, 0 is no effect, 10 is complete control
[5] = Postemergence, Rate 250 g/ha, scale 0 to 10, 0 no effect, 10 complete control
[6] = Postemergence, Rate 500 g/ha, scale of 0 to 10 where 0 is no effect and 10 is complete control
[7] = Preemergence, Rate 62 g/ha, scale of 0 to 10 where 0 is no effect and 10 is complete control
[8] = Preemergence, Rate 125 g/ha, scale of 0 to 10 where 0 is no effect and 10 is complete control
[9] = Postemergence, Rate 250 g/ha, scale 0 to 10
[10] = Postemergence, Rate 62 g/ha, scale of 0 to 10, 0 is no effect, 10 is complete control
[11] = Postemergence, Rate 125 g/ha, scale 0 to 10, 0 is no effect, 10 is complete control
[12] = Postemergence, Rate 500 g/ha, scale 0 to 10, 0 is no effect, 10 is complete control
[13] = Preemergence, Rate 500 g/ha, scale of 0 to 10 where 0 is no effect and 10 is complete control
[14] = Rate 250 g/ha, Postemergence, scale of 0 to 10 where 0 is no effect and 10 is complete control
[15] = Preemergence, Rate 125 g/ha, scale 0 to 10, 0 is no effect, 10 is complete control

## CC(C)N(C(=O)n1oc(=O)n(CO)c1=O)c1ccc(Cl)cc1 [Compound 457]
bedstraw; [1]
  Bedstraw plant response rating: 0
bedstraw; [2]
  Bedstraw plant response rating: 0
bedstraw; [3]
  Bedstraw plant response rating: 0
bedstraw; [4]
  Bedstraw plant response rating: 0
Surinam grass; [5]
  B. signalgrass plant response rating: 0
Surinam grass; [6]
  B. signalgrass plant response rating: 0
Surinam grass; [7]
  Plant response rating, B. signalgrass: 0
Surinam grass; [8]
  Plant response rating, B. signalgrass: 0
Surinam grass; [1]
  B. signalgrass plant response rating: 0
Surinam grass; [2]
  B. signalgrass plant response rating: 0
Surinam grass; [3]
  B. signalgrass plant response rating: 0
Surinam grass; [4]
  B. signalgrass plant response rating: 0
corn; [9]
  Corn plant response rating: 0
corn; [6]
  Corn plant response rating: 0
corn; [7]
  Plant response rating, Corn: 0
corn; [8]
  Plant response rating, Corn: 0
corn; [1]
  Corn plant response rating: 0
corn; [2]
  Corn plant response rating: 0
corn; [3]
  Corn plant response rating: 0
corn; [4]
  Corn plant response rating: 0
crabgrass; [9]
  Crabgrass plant response rating: 0
crabgrass; [6]
  Crabgrass plant response rating: 0
crabgrass; [7]
  Plant response rating, Crabgrass: 0
crabgrass; [8]
  Plant response rating, Crabgrass: 0
crabgrass; [1]
  Crabgrass plant response rating: 0
crabgrass; [2]
  Crabgrass plant response rating: 0
crabgrass; [3]
  Crabgrass plant response rating: 0
crabgrass; [4]
  Crabgrass plant response rating: 0

## CC[Si](C)(C)Cn1c(=O)on(C(=O)N(c2ccc(Cl)cc2)C(C)C)c1=O [Compound 460]
bedstraw; [6]
  Bedstraw plant response rating: 8
bedstraw; [7]
  Plant response rating, Bedstraw: 0
bedstraw; [8]
  Plant response rating, Bedstraw: 0
Surinam grass; [5]
  B. signalgrass plant response rating: 0
Surinam grass; [6]
  B. signalgrass plant response rating: 2
Surinam grass; [7]
  Plant response rating, B. signalgrass: 0
Surinam grass; [8]
  Plant response rating, B. signalgrass: 0
Surinam grass; [1]
  B. signalgrass plant response rating: 0
Surinam grass; [2]
  B. signalgrass plant response rating: 0
Surinam grass; [3]
  B. signalgrass plant response rating: 0
Surinam grass; [4]
  B. signalgrass plant response rating: 0
corn; [9]
  Corn plant response rating: 0
corn; [6]
  Corn plant response rating: 0
corn; [7]
  Plant response rating, Corn: 0
corn; [8]
  Plant response rating, Corn: 0
corn; [1]
  Corn plant response rating: 0
corn; [2]
  Corn plant response rating: 2
corn; [3]
  Corn plant response rating: 0
corn; [4]
  Corn plant response rating: 0
crabgrass; [9]
  Crabgrass plant response rating: 9
crabgrass; [6]
  Crabgrass plant response rating: 9
crabgrass; [7]
  Plant response rating, Crabgrass: 0
crabgrass; [8]
  Plant response rating, Crabgrass: 1
crabgrass; [1]
  Crabgrass plant response rating: 6
crabgrass; [2]
  Crabgrass plant response rating: 9
crabgrass; [3]
  Crabgrass plant response rating: 3
crabgrass; [4]
  Crabgrass plant response rating: 6

## CC(C)N(C(=O)n1oc(=O)n(COC(=O)C(C)(C)C)c1=O)c1ccc(F)cc1 [Compound 462]
bedstraw; [7]
  Plant response rating, Bedstraw: 0
bedstraw; [8]
  Plant response rating, Bedstraw: 0
bedstraw; [1]
  Bedstraw plant response rating: 0
bedstraw; [2]
  Bedstraw plant response rating: 0
bedstraw; [3]
  Bedstraw plant response rating: 0
bedstraw; [4]
  Bedstraw plant response rating: 0
Surinam grass; [5]
  B. signalgrass plant response rating: 0
Surinam grass; [6]
  B. signalgrass plant response rating: 0
Surinam grass; [7]
  Plant response rating, B. signalgrass: 0
Surinam grass; [8]
  Plant response rating, B. signalgrass: 0
Surinam grass; [1]
  B. signalgrass plant response rating: 0
Surinam grass; [2]
  B. signalgrass plant response rating: 0
Surinam grass; [3]
  B. signalgrass plant response rating: 0
Surinam grass; [4]
  B. signalgrass plant response rating: 0
corn; [9]
  Corn plant response rating: 0
corn; [6]
  Corn plant response rating: 0
corn; [7]
  Plant response rating, Corn: 0
corn; [8]
  Plant response rating, Corn: 0
corn; [1]
  Corn plant response rating: 0
corn; [2]
  Corn plant response rating: 0
corn; [3]
  Corn plant response rating: 0
corn; [4]
  Corn plant response rating: 0
crabgrass; [9]
  Crabgrass plant response rating: 0
crabgrass; [6]
  Crabgrass plant response rating: 0
crabgrass; [7]
  Plant response rating, Crabgrass: 0
crabgrass; [8]
  Plant response rating, Crabgrass: 0
crabgrass; [1]
  Crabgrass plant response rating: 0
crabgrass; [2]
  Crabgrass plant response rating: 0
crabgrass; [3]
  Crabgrass plant response rating: 0
crabgrass; [4]
  Crabgrass plant response rating: 0

## CC(C)N(C(=O)n1oc(=O)n(CCC2OCCCO2)c1=O)c1ccc(Cl)cc1 [Compound 532]
bedstraw; [10]
  Bedstraw plant response rating: 0
bedstraw; [11]
  Bedstraw plant response rating: 0
bedstraw; [12]
  Plant response rating, Bedstraw: 0
bedstraw; [7]
  Plant response rating, Bedstraw: 0
bedstraw; [13]
  Bedstraw plant response rating: 0
bedstraw; [14]
  Plant response rating, Bedstraw: 0
Surinam grass; [10]
  B. signalgrass plant response rating: 0
Surinam grass; [11]
  B. signalgrass plant response rating: 0
Surinam grass; [12]
  Plant response rating, B. signalgrass: 0
Surinam grass; [7]
  Plant response rating, B. signalgrass: 0
Surinam grass; [15]
  B. signalgrass plant response rating: 0
Surinam grass; Preemergence, Rate 250 g/ha
  B. signalgrass plant response rating (0 to 10 scale, 0 is no effect, 10 is complete control): 0
Surinam grass; [13]
  B. signalgrass plant response rating: 0
Surinam grass; [14]
  Plant response rating, B. signalgrass: 0
corn; [10]
  Corn plant response rating: 2
corn; [11]
  Corn plant response rating: 0
corn; [12]
  Plant response rating, Corn: 2
corn; [7]
  Plant response rating, Corn: 0
corn; [15]
  Corn plant response rating: 0
corn; Preemergence, Rate 250 g/ha
  Corn plant response rating (0 to 10 scale): 0
corn; [13]
  Corn plant response rating: 0
corn; [14]
  Plant response rating, Corn: 0
crabgrass; [10]
  Crabgrass plant response rating: 4
crabgrass; [11]
  Crabgrass plant response rating: 4
crabgrass; [12]
  Plant response rating, Crabgrass: 9
crabgrass; [7]
  Plant response rating, Crabgrass: 9
crabgrass; [15]
  Crabgrass plant response rating: 9
crabgrass; Preemergence, Rate 250 g/ha
  Crabgrass plant response rating (0 to 10 scale): 10
crabgrass; [13]
  Crabgrass plant response rating: 10
crabgrass; [14]
  Plant response rating, Crabgrass: 7
